Measurements as given in patent US7396837B2, “Antitumoral analogs of lamellarins” (Pharma Mar, S.A.U., priority 2002, dated 2008).
Read-outs that look alike come from different tables or passages of the source.

What was measured:
IGROV-ET = assay: SRB colorimetric cell growth inhibition assay, IGROV-ET (ET-743 resistant); type: cell-based; conditions: for GI50: GI=growth inhibition, read-out: GI50 IGROV-ET; for TGI IGROV-ET: total growth inhibition (cytostatic effect)
How it was run: (§1)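 Continuous drug exposure of human cancer cells; SRB protein stain read-out; triplicate wells, mean ± SD; GI, TGI, LC computed.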

A-549 = assay: SRB colorimetric cell growth inhibition assay, A-549; type: cell-based; conditions: for GI50: GI=growth inhibition, read-out: GI50 A-549; for CC50: cell killing (cytotoxic effect)
How it was run: as §1

LoVo-Dox = assay: SRB colorimetric cell growth inhibition assay, LoVo-Dox (MDR); type: cell-based; conditions: for CC50: cell killing (cytotoxic effect); for GI50: GI=growth inhibition, read-out: GI50 LOVO-DOX
How it was run: as §1

DU-145 = assay: SRB colorimetric cell growth inhibition assay, DU-145; type: cell-based; conditions: for GI50: GI=growth inhibition, read-out: GI50 DU-145; for TGI DU-145: total growth inhibition (cytostatic effect)
How it was run: as §1

LNCaP = assay: SRB colorimetric cell growth inhibition assay, LNCaP; type: cell-based; conditions: for GI50: GI=growth inhibition, read-out: GI50 LN-caP; for TGI LN-caP: total growth inhibition (cytostatic effect)
How it was run: as §1

IGROV = assay: SRB colorimetric cell growth inhibition assay, IGROV; type: cell-based; conditions: for GI50: GI=growth inhibition, read-out: GI50 IGROV; for TGI IGROV: total growth inhibition (cytostatic effect)
How it was run: as §1

LoVo = assay: SRB colorimetric cell growth inhibition assay, LoVo; type: cell-based; conditions: for CC50: cell killing (cytotoxic effect); for GI50: GI=growth inhibition, read-out: GI50 LOVO
How it was run: as §1

K-562 = assay: SRB colorimetric cell growth inhibition assay, K-562; type: cell-based; conditions: for CC50: cell killing (cytotoxic effect); for GI50: GI=growth inhibition, read-out: GI50 K-562
How it was run: as §1

SK-BR-3 = assay: SRB colorimetric cell growth inhibition assay, SK-BR-3; type: cell-based; conditions: for GI50: GI=growth inhibition, read-out: GI50 SK-BR-3; for TGI SK-BR-3: total growth inhibition (cytostatic effect)
How it was run: as §1

PANC-1 = assay: SRB colorimetric cell growth inhibition assay, PANC-1; type: cell-based; conditions: for CC50: cell killing (cytotoxic effect); for GI50: GI=growth inhibition, read-out: GI50 PANC-1
How it was run: as §1

human topoisomerase I = target: T1, human topoisomerase I (Homo sapiens, UniProt P11387); assay: Topoisomerase I DNA relaxation assay (supercoiled plasmid DNA); type: biochemical; conditions: supercoiled plasmid DNA, each compound tested at 1 μM, agarose gel with ethidium bromide
T1 sequence (P11387 1-765): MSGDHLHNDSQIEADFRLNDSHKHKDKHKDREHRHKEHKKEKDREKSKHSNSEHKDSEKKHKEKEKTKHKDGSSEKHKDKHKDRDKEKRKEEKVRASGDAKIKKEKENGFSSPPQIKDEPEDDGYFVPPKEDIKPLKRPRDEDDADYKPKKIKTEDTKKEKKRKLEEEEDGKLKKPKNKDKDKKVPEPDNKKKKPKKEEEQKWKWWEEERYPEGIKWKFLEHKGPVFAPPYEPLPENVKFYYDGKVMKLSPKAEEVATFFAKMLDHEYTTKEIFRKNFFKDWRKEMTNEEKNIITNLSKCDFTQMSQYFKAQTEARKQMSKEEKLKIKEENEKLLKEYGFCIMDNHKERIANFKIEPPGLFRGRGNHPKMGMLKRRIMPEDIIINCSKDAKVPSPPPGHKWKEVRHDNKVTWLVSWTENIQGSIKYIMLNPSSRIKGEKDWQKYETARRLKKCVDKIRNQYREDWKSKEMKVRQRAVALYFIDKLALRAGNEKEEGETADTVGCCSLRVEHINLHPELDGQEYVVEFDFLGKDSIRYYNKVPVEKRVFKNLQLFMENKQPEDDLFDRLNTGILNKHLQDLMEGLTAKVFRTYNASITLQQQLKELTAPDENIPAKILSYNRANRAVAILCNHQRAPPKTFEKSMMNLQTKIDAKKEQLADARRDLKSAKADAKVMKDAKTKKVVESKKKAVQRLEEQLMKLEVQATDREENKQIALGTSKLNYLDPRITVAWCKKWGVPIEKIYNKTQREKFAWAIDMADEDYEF
Description: Two assays, based on DNA relaxation and DNA cleavage (Bailly, C. DNA relaxation and cleavage assays to study topoisomerase I inhibitors. Methods Enzymol. 2001, 340, 610-623) were used evaluate the effects of the lamellarin analogs on the catalytic activity of human topoisomerase I.
In the first assay, a supercoiled plasmid DNA was relaxed with topoisomerase I in the absence or presence of the test compounds, each tested at 1 μM. DNA relaxation products were then resolved by gel electrophoresis on agarose gels containing ethidium bromide to stain the DNA.

SK-MEL-28 = assay: SRB colorimetric cell growth inhibition assay, SK-MEL-28; type: cell-based; conditions: for GI50: GI=growth inhibition, read-out: GI50 MEL-28; for TGI MEL-28: total growth inhibition (cytostatic effect)
How it was run: as §1

HT-29 = assay: SRB colorimetric cell growth inhibition assay, HT-29; type: cell-based; conditions: for GI50: GI=growth inhibition, read-out: GI50 HT-29; for CC50: cell killing (cytotoxic effect)
How it was run: as §1

H-MEC-1 = assay: SRB colorimetric cell growth inhibition assay, H-MEC-1; type: cell-based; conditions: H-MEC-1
From the text: (§2) A colorimetric type of assay, using sulforhodamine B (SRB) reaction has been adapted for a quantitative measurement of cell growth and viability (following the technique described by P. A. Skehan, et al., J. Natl. Cancer Inst. 1990, 82, 1107-1112).
(§3) This form of assay employs 96 well cell culture microplates of 9 mm diameter (T. Mosmann et al., J. of Immunological Methods 1983, 65, 55-63; G. T. Faircloth et al., J. of Tissue and Culture Methods 1988, 11, 201-205).
(§4) Most of the cell lines are obtained from American Type Culture Collection (ATCC) derived from different human cancer types.
(§5) The values for mean +/− SD of data from triplicate wells are calculated. Some parameters for cellular responses can be calculated: GI=growth inhibition, TGI=total growth inhibition (cytostatic effect) and LC=cell killing (cytotoxic effect).

SKOV-3 = assay: SRB colorimetric cell growth inhibition assay, SKOV-3; type: cell-based; conditions: SKOV-3
From the text: as §2, §3, §4, §5

[1] = total growth inhibition (cytostatic effect)

COc1cc(-c2c3n(c4c(=O)oc5cc(OC(=O)[C@@H](N)C(C)C)c(OC)cc5c24)CCc2cc(OC(=O)[C@@H](N)C(C)C)c(OC)cc2-3)ccc1OC(=O)[C@@H](N)C(C)C [Compound 135]
GI50 (IGROV-ET; IGROV-ET): 0.586 µM
TGI IGROV-ET (IGROV-ET; IGROV-ET): 1.98E−06 Molar
CC50 (IGROV-ET; human): 6.33 µM
GI50 (A-549; A-549): 3.34 µM
IC (TGI) (A-549; Homo sapiens, A549, A-549, total growth inhibition (cytostatic effect), read-out: TGI A-549): 8.76 µM
CC50 (A-549; Homo sapiens, A549, read-out: LC50 A-549, A-549): 8.76 µM
IC (TGI) (LoVo-Dox; Homo sapiens, LOVO-DOX, total growth inhibition (cytostatic effect), read-out: TGI LOVO-DOX): 8.76 µM
CC50 (LoVo-Dox; Homo sapiens, read-out: LC50 LOVO-DOX, LOVO-DOX): 8.76 µM
GI50 (LoVo-Dox; LOVO-DOX): 3.8 µM
GI50 (DU-145; DU-145): 1.6 µM
TGI DU-145 (DU-145; DU-145): 3.78E−06 Molar
CC50 (DU-145; human): 8.76 µM
GI50 (LNCaP; LN-caP): 0.783 µM
TGI LN-caP (LNCaP; LN-caP): 2.02E−06 Molar
CC50 (LNCaP; human): 4.91 µM
GI50 (IGROV; IGROV): 2.1 µM
TGI IGROV (IGROV; IGROV): 4.68E−06 Molar
CC50 (IGROV; human): 8.76 µM
CC50 (LoVo; Homo sapiens, LoVo, read-out: LC50 LOVO, LOVO): 8.76 µM
IC (TGI) (LoVo; Homo sapiens, LOVO, total growth inhibition (cytostatic effect), read-out: TGI LOVO): 8.76 µM
GI50 (LoVo; LOVO): 2.69 µM
IC (TGI) (K-562; Homo sapiens, K562, K-562, total growth inhibition (cytostatic effect), read-out: TGI K-562): 6.82 µM
CC50 (K-562; Homo sapiens, K562, read-out: LC50 K-562, K-562): 8.76 µM
GI50 (K-562; K-562): 1.07 µM
GI50 (SK-BR-3; SK-BR-3): 0.579 µM
TGI SK-BR-3 (SK-BR-3; SK-BR-3): 2.61E−06 Molar
CC50 (SK-BR-3; human): 8.76 µM
IC (TGI) (PANC-1; Homo sapiens, PANC-1, PANC-1, total growth inhibition (cytostatic effect), read-out: TGI PANC-1): 5.53 µM
CC50 (PANC-1; Homo sapiens, PANC-1, read-out: LC50 PANC-1, PANC-1): 8.76 µM
GI50 (PANC-1; PANC-1): 2.11 µM
stimulation of DNA cleavage by topoisomerase I / inhibition of topoisomerase I (nicked DNA band) in DNA relaxation assay (human topoisomerase I): No effect
GI50 (SK-MEL-28; MEL-28): 1.67 µM
TGI MEL-28 (SK-MEL-28; MEL-28): 5.00E−06 Molar
CC50 (SK-MEL-28; human): 8.76 µM
GI50 (HT-29; HT-29): 1.15 µM
IC (TGI) (HT-29; Homo sapiens, HT-29, HT-29, total growth inhibition (cytostatic effect), read-out: TGI HT-29): 4.82 µM
CC50 (HT-29; Homo sapiens, HT-29, read-out: LC50 HT-29, HT-29): 8.76 µM

COc1cc(-c2c3n(c4c(=O)oc5cc(OS(C)(=O)=O)c(OC)cc5c24)CCc2cc(OS(C)(=O)=O)c(OC)cc2-3)ccc1OS(C)(=O)=O [Compound 22]
GI50 (IGROV-ET; IGROV-ET): 2.89 µM
CC50 (IGROV-ET; IGROV-ET, cell killing (cytotoxic effect), read-out: LC50 IGROV-ET): 13.6 µM
TGI IGROV-ET (IGROV-ET; IGROV-ET): 1.36E−05 Molar
GI50 (A-549; A-549): 0.89 µM
CC50 (A-549; A-549, read-out: LC50 A-549): 13.6 µM
TGI A-549 (A-549; A-549, total growth inhibition (cytostatic effect)): 7.73E−06 Molar
GI50 (LoVo-Dox; LOVO-DOX): 6.59 µM
CC50 (LoVo-Dox; LOVO-DOX, read-out: LC50 LOVO-DOX): 13.6 µM
TGI LOVO-DOX (LoVo-Dox; LOVO-DOX, total growth inhibition (cytostatic effect)): 1.36E−05 Molar
GI50 (DU-145; DU-145): 0.743 µM
CC50 (DU-145; DU-145, cell killing (cytotoxic effect), read-out: LC50 DU-145): 13.6 µM
TGI DU-145 (DU-145; DU-145): 8.10E−06 Molar
GI50 (LNCaP; LN-caP): 0.564 µM
CC50 (LNCaP; LN-caP, cell killing (cytotoxic effect), read-out: LC50 LN-caP): 13.6 µM
TGI LN-caP (LNCaP; LN-caP): 1.82E−06 Molar
GI50 (IGROV; IGROV): 0.787 µM
CC50 (IGROV; IGROV, cell killing (cytotoxic effect), read-out: LC50 IGROV): 13.6 µM
TGI IGROV (IGROV; IGROV): 8.54E−06 Molar
GI50 (H-MEC-1; GI=growth inhibition, read-out: GI50 H-MEC-1): 0.856 µM
LC50 (concentration giving 50% net cell killing) (H-MEC-1; cell killing (cytotoxic effect)): 10.4 µM
TGI H-MEC-1 (H-MEC-1; [1]): 2.91E−06 Molar
GI50 (LoVo; LOVO): 0.484 µM
CC50 (LoVo; LOVO, read-out: LC50 LOVO): 13.6 µM
TGI LOVO (LoVo; LOVO, total growth inhibition (cytostatic effect)): 2.49E−06 Molar
GI50 (K-562; K-562): 0.67 µM
CC50 (K-562; K-562, read-out: LC50 K-562): 13.6 µM
TGI K-562 (K-562; K-562, total growth inhibition (cytostatic effect)): 4.77E−06 Molar
GI50 (SK-BR-3; SK-BR-3): 0.257 µM
CC50 (SK-BR-3; SK-BR-3, cell killing (cytotoxic effect), read-out: LC50 SK-BR-3): 7.16 µM
TGI SK-BR-3 (SK-BR-3; SK-BR-3): 1.81E−06 Molar
GI50 (SKOV-3; GI=growth inhibition, read-out: GI50 SKOV-3): 0.201 µM
LC50 (concentration causing 50% net cell killing) (SKOV-3; cell killing (cytotoxic effect), read-out: LC50 SKOV-3): 13.6 µM
TGI SKOV-3 (SKOV-3; [1]): 2.22E−06 Molar
GI50 (PANC-1; PANC-1): 0.976 µM
CC50 (PANC-1; PANC-1, read-out: LC50 PANC-1): 13.6 µM
TGI PANC-1 (PANC-1; PANC-1, total growth inhibition (cytostatic effect)): 1.36E−05 Molar
stimulation of DNA cleavage by topoisomerase I / inhibition of topoisomerase I (nicked DNA band) in DNA relaxation assay (human topoisomerase I): inactive
GI50 (SK-MEL-28; MEL-28): 0.332 µM
CC50 (SK-MEL-28; MEL-28, cell killing (cytotoxic effect), read-out: LC50 MEL-28): 13.6 µM
TGI MEL-28 (SK-MEL-28; MEL-28): 3.56E−06 Molar
GI50 (HT-29; HT-29): 0.879 µM
CC50 (HT-29; HT-29, read-out: LC50 HT-29): 13.6 µM
TGI HT-29 (HT-29; HT-29, total growth inhibition (cytostatic effect)): 1.36E−05 Molar
